“And” between values parts separate entries of the source, which are not always exact repeats. Equal entries are not always repeated.
Experiments:
[1] = Stability at 50° C., potency by HPLC (% EP remaining); assay type: physicochemical; settings: for % EP remaining, 2 wk / % EP remaining, 4 wk / % EP remaining, 8 wk: sealed glass vials, control: desiccated at 4° C. (100% assumed potency); for % EP remaining, 2 wk: 20160 min; for % EP remaining, 4 wk: 40320 min; for % EP remaining, 8 wk: 80640 min
Method: a. Crystalline etoposide 4'-phosphate diethanolate prepared as described above. b. Crystalline etoposide 4'-phosphate (unsolvated) was prepared by the following procedure. Etoposide 4'-phosphate (300 mg) in ethanol (175 ml) was heated with stirring at 70° C. to obtain a clear solution. The solution was filtered and the filtrate heated at 70° C. until the volume was reduced to ca. 34 ml. A portion of the solution (ca. 17 ml) was placed in a vial, and seeded with a small amount of needle-shaped etoposide 4'-phosphate crystals previously obtained. The solution was placed in freezer at -12° C. for 4 days and the resulting needle-shaped crystals were harvested as white fluffy material. NMR analysis of this material indicated ethanol content of ca. 1.6% w/w. […]
c. amorphous disodium etoposide 4'-phosphate prepared as described in U.S. Pat. No. 4,904,768. d. amorphous etoposide 4'-phosphate was obtained by dissolving crystalline etoposide 4'-phosphate diethanolate (125 mg) in methanol (50 ml), evaporating the solution to dryness on a rotary evaporator, and drying the residue at 25° C. under vacuum for 1 hour.
Accurately weighed samples of the test materials were placed in Type I flint glass vials and sealed with Teflon-coated stoppers and aluminum caps. The vials were stored at 50° C. The potency of these samples was determined at 2,4 and 8 weeks by HPLC. Samples stored desiccated at 4° C. served as controls (100% assumed potency).
Column: Jones Apex Octadecyl, 5μ, 150×4.6 mm
Mobile phase A: 0.02M ammonium phosphate (mono-basic) in Milli-Q water (pH ~4.5): Acetonitrile (85:15) Mobile phase B: Acetonitrile
Gradient: 0-3 minutes isocratic at 0% B; 3-18 mins--linear gradient 0 to 30% B; 18-23 mins--isocratic at 30% B; 23-25 mins--linear gradient 30 to 0% B; 25-30 mins--re-equilibrate at 100% A (i.e. 0% B) […]
Sample diluent: Mobile phase A
Inj. volume: 20 microliters
Retention times: Etoposide 4'-phosphate--5.4 mins; lignan P--11.5 mins; etoposide--17.5 mins Peak area for etoposide 4'-phosphate was linearly correlated with concentration in the range 0.05-0.20 mg/mL (correlation coefficient=0.9999).
The results of the above-described stability test are given in the following Table in which the term "EP" represents etoposide 4'-phosphate.

[2] = cited from earlier work
[3] = relative to etoposide; cited from earlier work
[4] = previously disclosed fluffy, amorphous forms; cited from earlier work

SMILES	% EP remaining, 2 wk [1] [%]	% EP remaining, 4 wk [1]	% EP remaining, 8 wk [1]	water solubility [2]	stability versus other forms of etoposide 4'-phosphate [1]	loss of potency over a 8-week period ([1]; 8-week period)	activity in in vivo antitumor assays [3]	decomposition upon storage [4]
COc1cc([C@@H]2c3cc4c(cc3[C@@H](O[C@@H]3O[C@@H]5CO[C@@H](C)O[C@H]5[C@H](O)[C@H]3O)[C@H]3COC(=O)[C@H]23)OCO4)cc(OC)c1OP(=O)(O)O [Amorphous EP 2Na, disodium etoposide 4'-phosphate]	85.5	69.3%	61.6%	≥ 100 mg/mL				
COc1cc([C@@H]2c3cc4c(cc3[C@@H](O[C@@H]3O[C@@H]5CO[C@@H](C)O[C@H]5[C@H](O)[C@H]3O)[C@H]3COC(=O)[C@H]23)OCO4)cc(OC)c1OP(=O)(O)O [Amorphous EP, etoposide 4'-phosphate]	65.8	54.1%	46.7%					
COc1cc([C@@H]2c3cc4c(cc3[C@@H](O[C@@H]3O[C@@H]5CO[C@@H](C)O[C@H]5[C@H](O)[C@H]3O)[C@H]3COC(=O)[C@H]23)OCO4)cc(OC)c1OP(=O)(O)O [Crystalline EP 2EtOH, etoposide 4'-phosphate diethanolate]	100	98.4% and 100%	97.5% and 99.3%		superior stability	very little loss of potency		
COc1cc([C@@H]2c3cc4c(cc3[C@@H](O[C@@H]3O[C@@H]5CO[C@@H](C)O[C@H]5[C@H](O)[C@H]3O)[C@H]3COC(=O)[C@H]23)OCO4)cc(OC)c1OP(=O)(O)O [Crystalline EP, etoposide 4'-phosphate]	93.3	87.9%	85.1%					
COc1cc([C@@H]2c3cc4c(cc3[C@@H](O[C@@H]3O[C@@H]5CO[C@@H](C)O[C@H]5[C@H](O)[C@H]3O)[C@H]3COC(=O)[C@H]23)OCO4)cc(OC)c1OP(=O)(O)O [Etoposide 4'-phosphate (I), Etoposide 4'-phosphate]				≥ 100 mg/mL			as active as etoposide	tend to decompose upon storage
COc1cc([C@@H]2c3cc4c(cc3[C@@H](O[C@@H]3O[C@@H]5CO[C@@H](C)O[C@H]5[C@H](O)[C@H]3O)[C@H]3COC(=O)[C@H]23)OCO4)cc(OC)c1O [Etoposide]				about 0.1 mg/ml				
